The source made the active and inactive calls. No cut-off for these calls is given here.
Tests used:
Cytochrome P450 1A2 = target: T1, Cytochrome P450 1A2 (Homo sapiens, UniProt P05177); assay: Inhibition of CYP1A2 in human liver microsomes using phenacetin as substrate by LC-MS/MS analysis; assay type: ADME
T1 sequence (P05177 whole entry): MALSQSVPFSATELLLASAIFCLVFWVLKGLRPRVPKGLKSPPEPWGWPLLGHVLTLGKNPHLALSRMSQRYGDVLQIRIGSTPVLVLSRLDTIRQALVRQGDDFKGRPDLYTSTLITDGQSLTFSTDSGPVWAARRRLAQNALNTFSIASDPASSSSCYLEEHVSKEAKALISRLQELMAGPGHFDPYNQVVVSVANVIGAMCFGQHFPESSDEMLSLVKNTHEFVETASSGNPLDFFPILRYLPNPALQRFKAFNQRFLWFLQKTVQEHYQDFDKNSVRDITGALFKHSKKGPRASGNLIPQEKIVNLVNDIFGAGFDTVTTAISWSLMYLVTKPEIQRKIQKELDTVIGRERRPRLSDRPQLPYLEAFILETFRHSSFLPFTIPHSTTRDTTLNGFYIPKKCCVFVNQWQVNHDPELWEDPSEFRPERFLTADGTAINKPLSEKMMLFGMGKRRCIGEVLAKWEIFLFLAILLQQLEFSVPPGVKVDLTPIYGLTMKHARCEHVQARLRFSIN

Cytochrome P450 2C9 = Cytochrome P450 2C9 (Homo sapiens, UniProt P11712); assay: Inhibition of CYP2C9 in human liver microsomes using diclofenac as substrate by LC-MS/MS analysis; assay type: ADME
661W = assay: Cytotoxicity against mouse 661W cells by MTT based vision related toxicity assay; assay type: cell-based
CYP2D6 = CYP2D6 (Homo sapiens, UniProt P10635); assay: Inhibition of CYP2D6 in human liver microsomes using dextromethorphan as substrate at 50 uM by LC-MS/MS analysis; assay type: ADME; details: probe dextromethorphan
[1] = Metabolic stability in Beagle dog hepatocytes assessed as Intrinsic clearance by LC-MS/MS analysis; assay type: ADME, cell-based, Canis lupus familiaris, Hepatocyte
[2] = Metabolic stability in Beagle dog hepatocytes assessed as half life by LC-MS/MS analysis; assay type: ADME, cell-based, Canis lupus familiaris, Hepatocyte
[3] = Metabolic stability in CD1 mouse hepatocytes assessed as Intrinsic clearance by LC-MS/MS analysis; assay type: ADME, cell-based, Hepatocyte
Heat shock protein HSP90 [4] = target: T2, Heat shock protein HSP90 (Homo sapiens, UniProt P07900+P08238); assay: Inhibition of HSP90 in human A549 cells assessed as downregulation of FAK expression incubated for 24 hrs by immunoblot analysis; assay type: cell-based; details: dose microM <=3, time 24.0 hrs
Heat shock protein HSP90 [5] = target: T2, Heat shock protein HSP90; assay: Inhibition of HSP90 in human A549 cells assessed as downregulation of Src expression at 0.3 uM by immunoblot analysis; details: time hrs <=24, TDE = time-dependent effect
[6] = Metabolic stability in human hepatocytes assessed as half life by LC-MS/MS analysis; assay type: ADME, cell-based, Hepatocyte
Heat shock protein HSP90 [7] = target: T2, Heat shock protein HSP90; assay: Inhibition of HSP90 in human A549 cells assessed as downregulation of Src expression incubated for 24 hrs by immunoblot analysis; assay type: cell-based; details: dose microM <=3, time 24.0 hrs
A549 [8] = assay: Induction of cell cycle arrest in human A549 cells assessed as decrease in cdc25c expression at Ser216 at 0.3 uM incubated for 24 hrs by Western blot analysis; assay type: functional, cell-based
[9] = Hepatic clearance in Sprague-Dawley rat by LC-MS/MS analysis; assay type: ADME, tissue-based, Hepatocyte; details: hepatocytes
[10] = Volume of distribution at steady state in Sprague-Dawley rat at 2 mg/kg, iv measured after 1 hrs by LC-MS/MS analysis; assay type: ADME, organism-based; details: in vivo, read-out: Vdss
A549 [11] = assay: Antitumor activity against human A549 cells xenografted in BALB/c mouse assessed as tumor growth inhibition at 25 mg/kg, po treated daily relative to control; details: read-out: TGI
Heat shock protein HSP90 [12] = target: T2, Heat shock protein HSP90; assay: Inhibition of HSP90 (unknown origin) assessed as competition of fluorescently labelled geldanamycin binding after 2 hrs by microplate reader analysis; assay type: protein assay
A549 [13] = assay: Antimigratory activity against human A549 cells assessed as inhibition of migration at 0.1 to 3 uM incubated for 6 hrs by crystal violet staining based by Boyden chamber method; assay type: functional, cell-based; details: dose 0.1-3 µM
NCI-H1975 [14] = assay: Antiproliferative activity against human NCI-H1975 cells harbouring EGFR L858R/T790M mutant measured after 48 hrs by SRB assay; details: NCI-H1975, 48 h
A549 [15] = assay: Induction of apoptosis in human A549 cells assessed as increase in cleaved caspase 6 protein expression at 0.3 to 3 uM measured after 18 hrs by western blot analysis; assay type: functional, cell-based; details: dose 0.3-3 µM
[16] = Toxicity in BALB/c mouse xenografted with human A549 cells assessed as reduction in body weight at 25 to 50 mg/kg, po treated daily relative to control; details: in vivo
A549 [17] = assay: Induction of cell cycle arrest in human A549 cells assessed as M stage arrest by measuring upregulation of p-histone H3 (Ser10) expression at 0.3 uM incubated for 24 hrs by Western blot analysis; assay type: functional, cell-based
A549 [18] = assay: Induction of cell cycle arrest in human A549 cells assessed as decrease in cdc2 expression at Tyr15 at 0.3 uM incubated for 24 hrs by Western blot analysis; assay type: functional, cell-based
hERG (KCNH2) = hERG (KCNH2) (Homo sapiens, UniProt Q12809); assay: Inhibition of human ERG stably expressed in HEK293 cells at 10 uM measured after 60 mins by [3H]]Astemizole binding assay; assay type: cell-based; details: HEK293 cells stably expressing hERG, probe [3H]astemizole
A549 [19] = assay: Antitumor activity against human A549 cells xenografted in BALB/c mouse assessed as tumor growth delay at 25 mg/kg, po treated daily relative to control
A549 [20] = assay: Induction of apoptosis in human A549 cells assessed as upregulation of p53 protein expression at 0.3 uM incubated for 24 hrs by Western blot analysis; assay type: functional, cell-based
A549 [21] = assay: Antitumor activity against human A549 cells xenografted in BALB/c mouse assessed as tumor growth delay at 50 mg/kg, po treated daily relative to control
[22] = Apparent permeability across apical to basolateral in human Caco2 cells by LC-MS/MS analysis; assay type: ADME, cell-based; details: Caco-2, read-out: permeability
NCI-H1975 [23] = assay: Antitumor activity against human NCI-H1975 cells xenografted in BALB/c mouse assessed as tumor growth inhibition at 50 mg/kg, po treated daily relative to control; details: read-out: TGI

Chain of hERG (KCNH2) (Q12809 whole entry): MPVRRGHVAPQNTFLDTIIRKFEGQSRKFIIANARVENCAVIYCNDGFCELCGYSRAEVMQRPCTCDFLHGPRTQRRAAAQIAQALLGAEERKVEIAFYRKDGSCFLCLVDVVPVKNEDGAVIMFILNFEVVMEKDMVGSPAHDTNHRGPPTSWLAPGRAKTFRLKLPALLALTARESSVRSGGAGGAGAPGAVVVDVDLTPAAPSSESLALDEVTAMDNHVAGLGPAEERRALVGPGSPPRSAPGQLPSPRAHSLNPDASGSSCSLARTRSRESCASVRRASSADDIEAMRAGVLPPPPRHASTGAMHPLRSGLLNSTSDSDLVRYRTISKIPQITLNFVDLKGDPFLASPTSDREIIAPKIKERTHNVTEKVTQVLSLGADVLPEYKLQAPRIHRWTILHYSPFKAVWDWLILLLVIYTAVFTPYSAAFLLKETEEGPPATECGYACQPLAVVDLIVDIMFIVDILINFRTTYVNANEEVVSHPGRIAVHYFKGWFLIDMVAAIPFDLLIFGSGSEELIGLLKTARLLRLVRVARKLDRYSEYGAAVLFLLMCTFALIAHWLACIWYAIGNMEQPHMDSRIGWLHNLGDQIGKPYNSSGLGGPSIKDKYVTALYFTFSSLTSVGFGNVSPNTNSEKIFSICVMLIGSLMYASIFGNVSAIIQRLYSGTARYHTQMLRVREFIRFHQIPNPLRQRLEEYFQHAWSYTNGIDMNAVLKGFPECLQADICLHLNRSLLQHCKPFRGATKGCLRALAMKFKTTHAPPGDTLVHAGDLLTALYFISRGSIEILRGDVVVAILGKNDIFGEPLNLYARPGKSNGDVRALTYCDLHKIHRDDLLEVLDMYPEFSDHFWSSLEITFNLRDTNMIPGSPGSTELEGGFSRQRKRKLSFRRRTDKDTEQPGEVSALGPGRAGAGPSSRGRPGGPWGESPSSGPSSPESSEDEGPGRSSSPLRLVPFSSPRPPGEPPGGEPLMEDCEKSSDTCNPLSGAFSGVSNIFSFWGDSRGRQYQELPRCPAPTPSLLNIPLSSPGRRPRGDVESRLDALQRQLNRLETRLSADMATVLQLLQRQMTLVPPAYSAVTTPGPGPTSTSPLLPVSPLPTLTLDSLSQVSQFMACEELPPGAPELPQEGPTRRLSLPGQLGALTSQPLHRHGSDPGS
Chain of CYP2D6 (P10635 whole entry): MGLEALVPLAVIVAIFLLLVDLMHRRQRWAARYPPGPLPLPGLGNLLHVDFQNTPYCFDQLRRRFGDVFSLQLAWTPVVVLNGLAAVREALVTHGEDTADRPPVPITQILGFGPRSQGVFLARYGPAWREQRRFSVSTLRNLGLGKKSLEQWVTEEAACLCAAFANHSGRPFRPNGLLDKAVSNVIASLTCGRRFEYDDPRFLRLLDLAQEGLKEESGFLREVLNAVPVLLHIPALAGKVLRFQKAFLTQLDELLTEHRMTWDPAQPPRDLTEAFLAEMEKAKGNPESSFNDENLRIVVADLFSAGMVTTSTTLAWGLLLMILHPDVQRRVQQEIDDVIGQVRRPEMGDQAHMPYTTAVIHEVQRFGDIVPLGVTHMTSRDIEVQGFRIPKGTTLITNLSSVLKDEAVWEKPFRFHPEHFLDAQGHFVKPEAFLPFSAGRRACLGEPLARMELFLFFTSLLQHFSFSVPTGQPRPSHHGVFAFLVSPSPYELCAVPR
Chain of Cytochrome P450 2C9 (P11712 whole entry): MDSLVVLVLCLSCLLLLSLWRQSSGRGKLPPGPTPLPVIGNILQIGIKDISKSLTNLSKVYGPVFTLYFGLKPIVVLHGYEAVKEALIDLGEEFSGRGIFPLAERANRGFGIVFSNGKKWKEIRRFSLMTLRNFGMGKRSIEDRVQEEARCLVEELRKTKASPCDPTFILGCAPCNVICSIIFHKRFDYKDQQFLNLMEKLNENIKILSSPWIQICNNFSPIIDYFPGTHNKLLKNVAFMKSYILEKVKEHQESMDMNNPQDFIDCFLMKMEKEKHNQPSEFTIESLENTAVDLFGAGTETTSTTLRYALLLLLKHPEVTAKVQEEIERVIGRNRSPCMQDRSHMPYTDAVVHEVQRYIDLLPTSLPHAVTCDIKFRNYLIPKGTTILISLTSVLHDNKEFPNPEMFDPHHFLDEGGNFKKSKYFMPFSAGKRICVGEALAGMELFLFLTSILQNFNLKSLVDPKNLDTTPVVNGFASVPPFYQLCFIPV

SMILES: CCN(C(=O)c1cc(C(C)C)c(O)cc1O)c1cccnc1
- IC50 (Cytochrome P450 1A2): > 50 µM
- IC50 (Cytochrome P450 2C9): 15 µM
- Activity (661W): > 10 µM
- inhibition at 50 µM (CYP2D6): 84%
- CLint [1]: 119 mL/min/kg
- half-life [2]: 39.2 min
- CLint [3]: 3080 mL/min/kg
- inhibition (Heat shock protein HSP90 [4]): Dose-Dependent Effect
- inhibition (Heat shock protein HSP90 [5]): Tde
- half-life [6]: 67.6 min
- inhibition (Heat shock protein HSP90 [7]): Dose-Dependent Effect
- Activity (A549 [8]): Active
- CLhep predicted [9]: 51.2 mL/min/kg
- Vd [10]: 4.59 L/kg
- inhibition in vivo at 25 mg/kg (A549 [11]): 46.7%
- IC50 (Heat shock protein HSP90 [12]): 0.11 µM
- Activity (A549 [13]): Active
- GI50 (NCI-H1975 [14]): 0.05 µM
- Activity (A549 [15]): Active
- Activity [16]: Non-Toxic
- Activity (A549 [17]): Active
- Activity (A549 [18]): Active
- inhibition at 1 h, 10 µM (hERG (KCNH2)): -18%
- Activity (A549 [19]): 41%
- Activity (A549 [20]): Active
- Activity (A549 [21]): 72%
- Papp A→B [22]: 31.9 ×10⁻⁶ cm/s
- inhibition in vivo at 50 mg/kg (NCI-H1975 [23]): 34.3%
